Reference: patent publication US6875778B2, “Alkylene-tethered bis-nitroiminoimidazolidines, process for preparing the same, and insecticides containing the same” (Gifu University, priority 2002, dated 2005)

Tested on: common cockroach
Assay: insecticidal activity against the common cockroach (abdominal injection, minimum lethal dose)
Format: in vivo
Settings: MLD = minimum lethal dose (moles/insect) at which two of three male adult common cockroaches became paralyzed or died; 1 to 10 μl of 1% by weight methanol solution injected into abdomen
Procedure: The insecticidal activity against the common cockroach was tested for the compounds of Examples 1 to 14 and the compound of Comparative Example 1. Methanol solutions containing 1% by weight of each compound were prepared. 1 to 10 μl of the methanol solution were injected into the abdomens of 3 male adult common cockroaches. The concentration at which two of the three adult insects became paralyzed or died, namely the minimum lethal dose (MLD: moles/insect) was then investigated.

Row | SMILES | log (1/MLD)
1 | O=[N+]([O-])N=C1N(CCCCCCCN2CCN(Cc3ccc(Cl)nc3)C2=N[N+](=O)[O-])CCN1Cc1ccc(Cl)nc1 [Exp. 5, 1,7-bis[(6-chloronicotinyl)-2-nitroiminoimidazolidin-3-yl]heptane] | 8.55
2 | O=[N+]([O-])N=C1N(CCCCCCCCCCN2CCN(Cc3ccc(Cl)nc3)C2=N[N+](=O)[O-])CCN1Cc1ccc(Cl)nc1 [Exp. 8, 1,10-bis[(6-chloronicotinyl)-2-nitroiminoimidazolidin-3-yl]decane] | 8.43
3 | O=[N+]([O-])N=C1N(CCN2CCN(Cc3ccc(Cl)nc3)C2=N[N+](=O)[O-])CCN1Cc1ccc(Cl)nc1 [Comp. Exp. 1, 1,2-bis[(6-chloronicotinyl)-2-nitroiminoimidazolidin-3-yl]ethane, reference compound] | 7.38
4 | O=[N+]([O-])N=C1N(CCCCCCN2CCN(Cc3ccc(Cl)nc3)C2=N[N+](=O)[O-])CCN1Cc1ccc(Cl)nc1 [Exp. 4, 1,6-bis[(6-chloronicotinyl)-2-nitroiminoimidazolidin-3-yl]hexane] | 8.65
5 | O=[N+]([O-])N=C1N(Cc2ccc(Cl)nc2)CCN1Cc1cccc(CN2CCN(Cc3ccc(Cl)nc3)C2=N[N+](=O)[O-])c1 [Exp. 12, 1,3-bis[(6-chloronicotinyl)-2-nitroiminoimidazolidin-3-yl]methylbenzene] | 7.71
6 | O=[N+]([O-])N=C1N(Cc2ccc(CN3CCN(Cc4ccc(Cl)nc4)C3=N[N+](=O)[O-])cc2)CCN1Cc1ccc(Cl)nc1 [Exp. 13, 1,4-bis[(6-chloronicotinyl)-2-nitroiminoimidazolidin-3-yl]methylbenzene] | 7.57
7 | O=[N+]([O-])N=C1N(CCCCCCN2CCN(Cc3cnc(Cl)s3)C2=N[N+](=O)[O-])CCN1Cc1cnc(Cl)s1 [Exp. 14, 1,6-bis[1-(2-chloro-5-thiazolylmethyl)-2-nitroiminoimidazolidin-3-yl]hexane] | 7.56
8 | O=[N+]([O-])N=C1N(CCCCCCCCCN2CCN(Cc3ccc(Cl)nc3)C2=N[N+](=O)[O-])CCN1Cc1ccc(Cl)nc1 [Exp. 7, 1,9-bis[(6-chloronicotinyl)-2-nitroiminoimidazolidin-3-yl]nonane] | 8.56
9 | O=[N+]([O-])N=C1N(CCCCN2CCN(Cc3ccc(Cl)nc3)C2=N[N+](=O)[O-])CCN1Cc1ccc(Cl)nc1 [Exp. 2, 1,4-bis[(6-chloronicotinyl)-2-nitroiminoimidazolidin-3-yl]butane] | 7.97
10 | O=[N+]([O-])N=C1N(CCCCCCCCN2CCN(Cc3ccc(Cl)nc3)C2=N[N+](=O)[O-])CCN1Cc1ccc(Cl)nc1 [Exp. 6, 1,8-bis[(6-chloronicotinyl)-2-nitroiminoimidazolidin-3-yl]octane] | 8.35
11 | O=[N+]([O-])N=C1N(CCCN2CCN(Cc3ccc(Cl)nc3)C2=N[N+](=O)[O-])CCN1Cc1ccc(Cl)nc1 [Exp. 1, 1,3-bis[(6-chloronicotinyl)-2-nitroiminoimidazolidin-3-yl]propane] | 8.31
